Reference: patent publication US11840528B2 (Hoffmann-La Roche Inc., priority 2018, dated 2023)

Tests used:
[1] = biological target: T1, h-GABA-A α5β3γ2 (Homo sapiens, UniProt P18507+P31644); assay: [3H]flumazenil competition binding assay, membranes of HEK293 cells expressing GABAA receptors; conditions: displacement of [3H]-Flumazenil 0.5 nM, HEK293 cells expressing human receptors, mean of two determinations; Table 1
In short: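 Receptor source: human α5β3γ2 transiently transfected into HEK293 cells, membranes in pH 7.5 Krebs-tris. Filtration through GF/C, then scintillation counting.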

[2] = biological target: T1, h-GABA-A α5β3γ2; assay: Two-electrode voltage clamp electrophysiology in Xenopus laevis oocytes expressing GABAA receptors, modulation of GABA EC20 current; type: cell-based; design: host or cells: Xenopus laevis oocytes micro-injected with RNA transcripts of the subunits; conditions: Table 1; for Efficacy (GABA) %: % modulation of GABA EC20 = 100*(Fold increase-1); for Fold increase h-GABA-A α5β3γ2 oocyte: test compound at approx. 30 fold its Ki, GABA at EC20
In short: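 Modulation is reported as % of the GABA EC20 current, calculated as 100*(Fold increase−1) from the peak ratio between a second GABA response carrying compound (applied at roughly 30-fold Ki) and a preceding control response. Oocytes expressing human α5β3γ2 were clamped at −80 mV at room temperature, 3–5 days after injection.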

Row | SMILES | Ki [1] | Efficacy (GABA) % [2] | Fold increase h-GABA-A α5β3γ2 oocyte [2]
1 | Cc1ccc(-c2noc(C)c2Cn2ncc(N3CCN(CC(F)(F)F)CC3)cc2=O)cn1 [Example 31, 2-[[5-methyl-3-(6-methyl-3-pyridyl)isoxazol-4-yl]methyl]-5-[4-(2,2,2-trifluoroethyl)piperazin-1-yl]pyridazin-3-one] | 13.5 nM | 145% | 2.45
2 | Cc1ccc(-c2nocc2Cn2ncc(N3C[C@@H](C)O[C@@H](C)C3)cc2=O)cn1 [Example 32, 5-(cis-2,6-dimethylmorpholin-4-yl)-2-[[3-(6-methyl-3-pyridyl)isoxazol-4-yl]methyl]pyridazin-3-one] | 12.7 nM | 288% | 3.88
3 | Cc1ccc(-c2noc(C)c2Cn2ncc(N3C4COCC3C4)cc2=O)cn1 [Example 33, 2-[[5-methyl-3-(6-methyl-3-pyridyl)isoxazol-4-yl]methyl]-5-(3-oxa-6-azabicyclo[3.1.1]heptan-6-yl)pyridazin-3-one] | 3.2 nM | 150% | 2.5
4 | Cc1ccc(-c2noc(C)c2Cn2ncc(N3CCC(C#N)CC3)cc2=O)cn1 [Example 34, 1-[1-[[5-methyl-3-(6-methyl-3-pyridyl)isoxazol-4-yl]methyl]-6-oxo-pyridazin-4-yl]piperidine-4-carbonitrile] | 4.3 nM | 222% | 3.22
5 | Cc1ccc(-c2noc(C)c2Cn2ncc(N3C4CCC3COC4)cc2=O)cn1 [Example 35, 2-[[5-methyl-3-(6-methyl-3-pyridyl)isoxazol-4-yl]methyl]-5-(3-oxa-8-azabicyclo[3.2.1]octan-8-yl)pyridazin-3-one] | 0.8 nM | 179% | 2.79
6 | Cc1ccc(-c2noc(C)c2Cn2ncc(N3CCN(C4CC4)CC3)cc2=O)cn1 [Example 36, 5-(4-cyclopropylpiperazin-1-yl)-2-[[5-methyl-3-(6-methyl-3-pyridyl)isoxazol-4-yl]methyl]pyridazin-3-one] | 13.8 nM | 145% | 2.45
7 | Cc1ccc(-c2noc(C)c2Cn2ncc(N3CC4(COC4)C3)cc2=O)cn1 [Example 38, 2-[[5-methyl-3-(6-methyl-3-pyridyl)isoxazol-4-yl]methyl]-5-(2-oxa-6-azaspiro[3.3]heptan-6-yl)pyridazin-3-one] | 38.4 nM | 181% | 2.81
8 | Cc1onc(-c2ccc(C(F)(F)F)nc2)c1Cn1ncc(N2C[C@@H](C)O[C@@H](C)C2)cc1=O [Example 39, 5-(cis-2,6-dimethylmorpholin-4-yl)-2-[[5-methyl-3-[6-(trifluoromethyl)-3-pyridyl]isoxazol-4-yl]methyl]pyridazin-3-one] | 3.2 nM | 198% | 2.98
9 | Cc1onc(-c2ccc(C(F)(F)F)nc2)c1Cn1ncc(N2CCN(C(=O)C3(C)CC3)CC2)cc1=O [Example 40, 5-[4-(1-methylcyclopropanecarbonyl)piperazin-1-yl]-2-[[5-methyl-3-[6-(trifluoromethyl)-3-pyridyl]isoxazol-4-yl]methyl]pyridazin-3-one] | 43.3 nM | 250% | 3.5
10 | Cc1ccc(-c2noc(C)c2Cn2ncc(N3CCN4C(=O)CCC4C3)cc2=O)cn1 (stereo not drawn) [Example 43, 2-(1-((5-methyl-3-(6-methylpyridin-3-yl)isoxazol-4-yl)methyl)-6-oxo-1,6-dihydropyridazin-4-yl)hexahydropyrrolo[1,2-a]pyrazin-6(2H)-one] | 10 nM | 174% | 2.74
11 | Cc1ccc(-c2noc(C)c2Cn2ncc(N3CCN4C(=O)OCC4C3)cc2=O)cn1 (stereo not drawn) [Example 44, 7-(1-((5-methyl-3-(6-methylpyridin-3-yl)isoxazol-4-yl)methyl)-6-oxo-1,6-dihydropyridazin-4-yl)tetrahydro-1H-oxazolo[3,4-a]pyrazin-3(5H)-one] | 9.5 nM | 181% | 2.81
12 | Cc1ccc(-c2noc(C)c2Cn2ncc(N(C)C)cc2=O)cn1 [Example 45, 5-(dimethylamino)-2-((5-methyl-3-(6-methylpyridin-3-yl)isoxazol-4-yl)methyl)pyridazin-3(2H)-one] | 6.6 nM | 103% | 2.03
13 | Cc1ccc(-c2noc(C)c2Cn2ncc(N3CCC4(CC3)COC4)cc2=O)cn1 [Example 46, 2-[[5-methyl-3-(6-methyl-3-pyridyl)isoxazol-4-yl]methyl]-5-(2-oxa-7-azaspiro[3.5]nonan-7-yl)pyridazin-3-one] | 15.2 nM | 107% | 2.07
14 | Cc1ccc(-c2noc(C)c2Cn2ncc(N3C[C@H]4COC[C@H]4C3)cc2=O)cn1 [Example 49, 5-[(3aR,6aS)-1,3,3a,4,6,6a-hexahydrofuro[3,4-c]pyrrol-5-yl]-2-[[5-methyl-3-(6-methyl-3-pyridyl)isoxazol-4-yl]methyl]pyridazin-3-one] | 13 nM | 167% | 2.67
15 | Cc1ccc(-c2noc(C)c2Cn2ncc(N3CCN[C@H](C)C3)cc2=O)cn1 [Example 50, 2-[[5-methyl-3-(6-methyl-3-pyridyl)isoxazol-4-yl]methyl]-5-[(3R)-3-methylpiperazin-1-yl]pyridazin-3-one] | 2.8 nM | 187% | 2.87
16 | Cc1ccc(-c2noc(C)c2Cn2ncc(N3CCN[C@@H](C)C3)cc2=O)cn1 [Example 51, 2-[[5-methyl-3-(6-methyl-3-pyridyl)isoxazol-4-yl]methyl]-5-[(3S)-3-methylpiperazin-1-yl]pyridazin-3-one] | 3.3 nM | 182% | 2.82
17 | Cc1onc(-c2ncc(Cl)cc2F)c1Cn1ncc(N2C[C@@H](C)O[C@@H](C)C2)cc1=O [Example 52, 2-[[3-(5-chloro-3-fluoro-2-pyridyl)-5-methyl-isoxazol-4-yl]methyl]-5-(cis-2,6-dimethylmorpholin-4-yl)pyridazin-3-one] | 0.7 nM | 135% | 2.35
18 | Cc1onc(-c2ncc(Cl)cc2F)c1Cn1ncc(N2CCN(C(=O)C3(C)CC3)CC2)cc1=O [Example 53, 2-[[3-(5-chloro-3-fluoro-2-pyridyl)-5-methyl-isoxazol-4-yl]methyl]-5-[4-(1-methylcyclopropanecarbonyl)piperazin-1-yl]pyridazin-3-one] | 9.8 nM | 152% | 2.52
19 | Cc1ccc(-c2noc(C)c2Cn2ncc(N3CCC(n4c(C)nnc4C)CC3)cc2=O)cn1 [Example 54, 5-[4-(3,5-dimethyl-1,2,4-triazol-4-yl)-1-piperidyl]-2-[[5-methyl-3-(6-methyl-3-pyridyl)isoxazol-4-yl]methyl]pyridazin-3-one] | 10.8 nM | 175% | 2.75
20 | Cc1onc(-c2ccc(F)cc2)c1Cn1ncc(N2CCC(n3c(C)nnc3C)CC2)cc1=O [Example 55, 5-(4-(3,5-Dimethyl-4H-1,2,4-triazol-4-yl)piperidin-1-yl)-2-((3-(4-fluorophenyl)-5-methylisoxazol-4-yl)methyl)pyridazin-3(2H)-one] | 43.4 nM | 85% | 1.85
21 | Cc1ccc(-c2noc(C)c2Cn2ncc(N3CC[C@@H](C(=O)NC4CC4)C3)cc2=O)cn1 [Example 56, (3R)—N-cyclopropyl-1-[1-[[5-methyl-3-(6-methyl-3-pyridyl)isoxazol-4-yl]methyl]-6-oxo-pyridazin-4-yl]pyrrolidine-3-carboxamide] | 33.4 nM | 247% | 3.47
22 | Cc1ccc(-c2noc(C)c2Cn2ncc(N3CC[C@H](C(=O)NC4CC4)C3)cc2=O)cn1 [Example 57, (3S)—N-cyclopropyl-1-[1-[[5-methyl-3-(6-methyl-3-pyridyl)isoxazol-4-yl]methyl]-6-oxo-pyridazin-4-yl]pyrrolidine-3-carboxamide] | 56.2 nM | 198% | 2.98
23 | Cc1ccc(-c2noc(C)c2Cn2ncc(N3CC4(C3)CN(C3CC3)C4)cc2=O)cn1 [Example 58, 5-(2-cyclopropyl-2,6-diazaspiro[3.3]heptan-6-yl)-2-[[5-methyl-3-(6-methyl-3-pyridyl)isoxazol-4-yl]methyl]pyridazin-3-one] | 70.4 nM | 209% | 3.09
24 | Cc1ccc(-c2noc(C)c2Cn2ncc(N3CCN(C4CC4)[C@H](C)C3)cc2=O)cn1 [Example 59, 5-[(3R)-4-cyclopropyl-3-methyl-piperazin-1-yl]-2-[[5-methyl-3-(6-methyl-3-pyridyl)isoxazol-4-yl]methyl]pyridazin-3-one] | 15.4 nM | 157% | 2.57
